From patent US11866416B2, “Streptococcus mutans glucosyl transferase inhibitors for dental caries therapy” (UAB Research Foundation, priority 2018, dated 2024) come the findings set out here.

In assay [1] the test system is S. sanguinis biofilm. The assay is described as follows: Mono-species biofilm of S. sanguinis. The class given is cell-based, Streptococcus sanguinis. The note with it: up to 200 μM. The protocol:
(§1) Growth of commensal and dual-species biofilms. Overnight broth cultures were transferred by 1:50 dilutions into fresh THB medium and were allowed to grow until mid-exponential phase (OD470 nm=0.6) before transfer to 96-well plates. For mono-species biofilms, 1:100 dilution of the individual cultures was added to the 96-well plate containing the desired concentration of compound or DMSO. After incubation for 16 h, the biofilms were gently washed with PBS in triplicate and the biofilms were quantified with crystal violet staining. For dual-species biofilms, 1:100 dilution of S. mutans was used and 1:10 dilution of the commensal species (S. sanguinius or S. gordonii) was used as inoculum to seed the 96-well plate containing the desired concentration of compound or DMSO. After incubation for 16 h, the biofilms were scratched off with a sterile spatula and suspended in 100 μL of PBS, the biofilm samples were vortexed. To determine the total number of viable bacterial cells (colony forming units, CFU), 100 μl from dispersed, 16 h biofilms were serially diluted in potassium phosphate buffer and plated in duplicate on BAP. The commensal species could be differentiated from S. mutans due to their characteristic green rings.

Assay [2] has as its target GtfB (Streptococcus mutans serotype c (strain ATCC 700610 / UA159), UniProt P08987). Description: Zymographic assay on GtfB from S. mutans GtfCD mutants. It counts as biochemical. Conditions: 25 μM. The protocol:
(§2) FIGS. 3A-3C show Gtf patterns of S. mutans UA159 and its mutant variants. Culture supernatants were prepared from S. mutans UA159 and gtf double mutants, and then subjected to SDS-PAGE analysis with equivalent amount of proteins in each lane. […] The intensity of the bands were quantified using ImageJ in comparison to DMSO.
(§3) Supernatants containing Gtf proteins prepared from S. mutans bacterial cultures were subjected to SDS-PAGE analysis and zymographic assay. […] The same amount of the protein sample was used as controls and visualized by protein staining (FIG. 3A, top panels). The lead compounds were also tested against individual Gtfs using supernatant proteins harvested from cultures of various double mutants.
(§4) Construction of S. mutans Gtfs mutants. GtfB, GtfC single mutant, and GtfBC double mutant in which gtf was replaced with a kanamycin resistance cassette, aphA3 (encoding an aminoglycoside phosphotransferase), were gifts from Dr. Robert Burne's Laboratory, University of Florida, Gainesville, Fla. The GtfD mutant was constructed by an overlapping PCR ligation strategy using an erythromycin resistance cassette isolated from the IFDC2 cassette (Xie, Z., Okinaga, T., Qi, F., Zhang, Z. & Merritt, J. Cloning-independent and counterselectable markerless mutagenesis system in Streptococcus mutans. Appl Environ Microbiol 77, 8025-8033 (2011)).

In assay [3] the target is GtfC (Streptococcus mutans serotype c (strain ATCC 700610 / UA159), UniProt P13470). Description: Zymographic assay on GtfC from S. mutans GtfBD mutants. The note with it: 25 μM. It counts as biochemical. On the procedure: as §2, §3, §4
GtfC, sequence (P13470 35-1455 limits assumed): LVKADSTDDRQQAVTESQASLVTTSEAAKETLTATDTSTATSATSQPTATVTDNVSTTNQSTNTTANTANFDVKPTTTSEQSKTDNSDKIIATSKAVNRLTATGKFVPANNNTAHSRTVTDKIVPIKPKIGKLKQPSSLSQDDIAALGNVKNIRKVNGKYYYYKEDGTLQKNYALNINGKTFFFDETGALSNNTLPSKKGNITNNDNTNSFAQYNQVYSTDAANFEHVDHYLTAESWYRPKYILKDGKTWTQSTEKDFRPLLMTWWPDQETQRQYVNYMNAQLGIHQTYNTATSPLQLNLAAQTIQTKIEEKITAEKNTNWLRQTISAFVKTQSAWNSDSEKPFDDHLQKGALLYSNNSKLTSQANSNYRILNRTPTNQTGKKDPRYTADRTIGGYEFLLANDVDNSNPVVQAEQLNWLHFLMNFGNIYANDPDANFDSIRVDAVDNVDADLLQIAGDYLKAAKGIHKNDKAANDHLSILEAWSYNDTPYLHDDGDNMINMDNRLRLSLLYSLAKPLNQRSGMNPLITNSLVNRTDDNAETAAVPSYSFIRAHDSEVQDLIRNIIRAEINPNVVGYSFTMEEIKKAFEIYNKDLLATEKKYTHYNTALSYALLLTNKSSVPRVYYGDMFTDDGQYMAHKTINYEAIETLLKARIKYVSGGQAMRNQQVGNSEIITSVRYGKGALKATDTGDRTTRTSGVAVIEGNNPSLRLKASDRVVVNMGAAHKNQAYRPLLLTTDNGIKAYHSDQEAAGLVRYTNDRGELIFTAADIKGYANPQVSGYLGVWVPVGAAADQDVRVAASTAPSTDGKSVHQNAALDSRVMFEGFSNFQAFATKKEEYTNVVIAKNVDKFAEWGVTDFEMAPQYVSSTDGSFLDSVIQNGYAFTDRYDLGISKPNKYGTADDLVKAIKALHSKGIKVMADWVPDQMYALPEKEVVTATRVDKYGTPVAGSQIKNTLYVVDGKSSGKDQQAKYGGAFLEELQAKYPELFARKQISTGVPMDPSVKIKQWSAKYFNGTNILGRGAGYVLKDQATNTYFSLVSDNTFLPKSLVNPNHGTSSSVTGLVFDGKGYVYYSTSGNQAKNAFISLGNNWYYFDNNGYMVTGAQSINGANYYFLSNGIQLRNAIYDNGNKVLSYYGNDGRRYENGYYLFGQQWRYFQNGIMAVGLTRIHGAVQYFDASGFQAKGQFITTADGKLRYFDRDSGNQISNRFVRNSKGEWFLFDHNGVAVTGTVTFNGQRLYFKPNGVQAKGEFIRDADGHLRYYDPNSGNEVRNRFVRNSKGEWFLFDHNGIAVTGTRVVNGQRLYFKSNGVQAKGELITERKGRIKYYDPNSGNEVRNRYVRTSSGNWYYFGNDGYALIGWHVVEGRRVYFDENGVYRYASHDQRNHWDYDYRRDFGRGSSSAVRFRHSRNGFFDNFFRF
The subject of assay [4] is S. gordonii biofilm. The assay is described as follows: Mono-species biofilm of S. gordonii. The class given is cell-based, Streptococcus gordonii. Conditions: treated with lead compound. On the procedure:
as §1

GtfB, sequence (P08987 35-1476 limits assumed): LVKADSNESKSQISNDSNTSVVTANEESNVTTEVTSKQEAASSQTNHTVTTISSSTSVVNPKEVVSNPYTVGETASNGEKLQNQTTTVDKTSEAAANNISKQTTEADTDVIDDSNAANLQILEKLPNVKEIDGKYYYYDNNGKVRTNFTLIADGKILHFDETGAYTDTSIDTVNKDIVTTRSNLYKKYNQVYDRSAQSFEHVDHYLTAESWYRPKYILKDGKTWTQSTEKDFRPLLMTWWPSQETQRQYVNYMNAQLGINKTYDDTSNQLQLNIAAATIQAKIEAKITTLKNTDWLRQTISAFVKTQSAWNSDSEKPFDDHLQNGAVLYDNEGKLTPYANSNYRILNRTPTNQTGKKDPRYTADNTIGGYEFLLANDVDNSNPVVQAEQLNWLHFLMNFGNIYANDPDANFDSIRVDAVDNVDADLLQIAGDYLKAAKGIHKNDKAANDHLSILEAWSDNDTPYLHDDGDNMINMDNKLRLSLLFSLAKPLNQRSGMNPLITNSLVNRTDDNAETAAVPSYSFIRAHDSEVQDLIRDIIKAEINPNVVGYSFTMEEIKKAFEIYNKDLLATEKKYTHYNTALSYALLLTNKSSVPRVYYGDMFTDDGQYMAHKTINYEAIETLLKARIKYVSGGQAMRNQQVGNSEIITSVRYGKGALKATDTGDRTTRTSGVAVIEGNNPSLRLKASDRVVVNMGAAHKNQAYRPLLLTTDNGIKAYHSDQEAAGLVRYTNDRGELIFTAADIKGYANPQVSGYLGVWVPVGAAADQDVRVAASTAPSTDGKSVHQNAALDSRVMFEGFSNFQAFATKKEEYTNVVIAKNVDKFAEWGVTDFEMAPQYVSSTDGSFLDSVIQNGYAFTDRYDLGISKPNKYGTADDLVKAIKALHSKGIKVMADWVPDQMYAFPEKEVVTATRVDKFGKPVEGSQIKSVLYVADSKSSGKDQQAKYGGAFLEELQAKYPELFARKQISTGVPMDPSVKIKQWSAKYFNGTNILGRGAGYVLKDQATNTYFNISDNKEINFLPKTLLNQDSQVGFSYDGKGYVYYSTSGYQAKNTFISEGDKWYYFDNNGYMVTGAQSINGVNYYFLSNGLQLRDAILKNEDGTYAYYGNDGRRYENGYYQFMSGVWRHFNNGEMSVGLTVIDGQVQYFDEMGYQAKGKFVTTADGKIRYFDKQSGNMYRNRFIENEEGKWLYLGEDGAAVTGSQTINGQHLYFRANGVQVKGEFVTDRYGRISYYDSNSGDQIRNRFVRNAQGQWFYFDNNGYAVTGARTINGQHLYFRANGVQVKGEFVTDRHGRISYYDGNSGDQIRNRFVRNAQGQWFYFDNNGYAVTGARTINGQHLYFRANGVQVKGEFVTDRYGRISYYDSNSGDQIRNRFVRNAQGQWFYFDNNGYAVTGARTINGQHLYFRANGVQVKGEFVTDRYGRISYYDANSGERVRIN

For the compound `NC(=O)c1ccccc1NC(=O)c1cc2cc([N+](=O)[O-])ccc2s1` [#G43], the “S. sanguinis biofilm formation versus control” value in assay [1] is “No significant difference”. The “inhibition of GtfB activity (ImageJ band intensity)” value in assay [2] came to 80%. Also, the “inhibition of GtfC activity (ImageJ band intensity)” value in assay [3] worked out at 80%. Besides, the “S. gordonii biofilm formation” value in assay [4] is listed as “slight increase”.
